Patent US20140369933A1, “FLUORINE-18 LABELED HYDROGEN ION PROBES” (The Trustees of The University of Pennsylvania, priority 2011, published 2014)
Where two headings read alike, the source gives them in different places.

Columns and labels:
[1] = pKa of the indicators by UV-VIS spectroscopy from pH dependence of absorption of basic forms
Procedure: (§1) The values of pKa of the indicators were determined by UV-VIS spectroscopy from the pH dependence of absorption of their basic forms and other spectroscopic investigations of the products were performed by Beckman-Coulter DU 530 spectrophotometer using acetate, phosphate, TRIZMA, and borate buffers for different values of pH. The number of fluorine atoms in the molecule was also determined by comparison of the ratio of sample activity to absorption of the basic forms of indicators.

[2] = UV-VIS absorption maxima of indicator forms; format: physicochemical; settings: for absorption maximum of basic form: basic form of indicator; for absorption maximum of acidic form: acidic form of indicator
Procedure: as §1

[3] = parental compound, intravenous injection, renal excretion; cited from earlier work
[4] = UV-VIS, pH dependence of absorption of basic form, acetate, phosphate, TRIZMA, borate buffers

Compound | pKa [1] | absorption maximum of basic form [2] [nm] | absorption maximum of acidic form [2] [nm] | pKa [1, 4] | half-life, mostly renal clearance [3] [min]
O=S1(=O)OC(c2ccc(O)c([18F])c2)(c2cc([18F])c(O)c([18F])c2)c2ccccc21 (stereo not drawn) [TFPR, trifluorophenol red] | 5.9 | 572 |  |  | 
Cc1cc(O)c([18F])cc1C1(c2cc([18F])c(O)c([18F])c2C)OS(=O)(=O)c2ccccc21 (stereo not drawn) [TFCP, trifluorocresolsulfonphthalein] | 6.4 | 592 |  |  | 
O=S1(=O)OC(c2ccc(O)cc2)(c2ccc(O)c([18F])c2)c2ccccc21 (stereo not drawn) [MFPR, monofluorophenol red] | 7.3 | 564 | 436 |  | 
difluorocresolsulfonphthalein [DFCP] |  | 589 |  |  | 
monofluorocresolsulfonphthalein [MFCP] |  | 582 |  |  | 
O=C1OC(c2ccc(O)cc2)(c2ccc(O)cc2)c2ccccc21 [phenolphthalein, reference compound] | 9.75 | 553 |  |  | 
Cc1cc(C2(c3ccc(O)c(C)c3)OS(=O)(=O)c3ccccc32)ccc1O [Cresol Red, ortho-cresolsulfonphthalein, reference compound] |  | 572 |  | 8.2 | 
Cc1cc(O)c(C(C)C)cc1C1(c2cc(C(C)C)c(O)cc2C)OS(=O)(=O)c2ccccc21 [Thymol Blue, thymolsulfonphthalein, reference compound] |  | 597 |  | 8.85 | 
monofluoronaphtholphthalein |  | 660 |  | 7.7 | 
O=S1(=O)OC(c2ccc(O)cc2)(c2ccc(O)cc2)c2ccccc21 [Phenol Red, phenolsulfonphthalein, reference compound] | 7.9 | 558 | 433 |  | 20 to 30
O=C1OC(c2ccc(O)cc2)(c2ccc(O)c([18F])c2)c2ccccc21 (stereo not drawn) [monofluorophenolphthalein] | 9.3 | 558 |  |  | 
O=S1(=O)OC(c2ccc(O)c([18F])c2)(c2ccc(O)c([18F])c2)c2ccccc21 [DFPR, difluorophenol red] | 6.4 | 570 | 428 |  | 
trifluorophenol red [TFPR] |  | 572 |  |  | 
Cc1cc(O)ccc1C1(c2ccc(O)cc2C)OS(=O)(=O)c2ccccc21 [CP, cresolsulfonphthalein, reference compound] |  |  |  | 8.3 | 
O=C1OC(c2cc([18F])c(O)c3ccccc23)(c2cc([18F])c(O)c3ccccc23)c2ccccc21 [difluoronaphtholphthalein] | 7.2 | 668 |  |  | 
O=C1OC(c2ccc(O)c3ccccc23)(c2ccc(O)c3ccccc23)c2ccccc21 [naphtholphthalein, reference compound] | 7.95 | 653 |  |  | 
O=C1OC(c2ccc(O)c([18F])c2)(c2ccc(O)c([18F])c2)c2ccccc21 [difluorophenolphthalein] | 8.7 | 564 |  |  | 
Cc1cc(C2(c3cc(C)c(O)c([18F])c3)OS(=O)(=O)c3ccccc32)cc([18F])c1O [DFCR, DiFluoroCresol Red] | 6.8 | 582 |  |  | 
Cc1cc(O)c(C(C)C)cc1C1(c2cc(C(C)C)c(O)c([18F])c2C)OS(=O)(=O)c2ccccc21 (stereo not drawn) [MFTB, MonoFluoro Thymol Blue] | 8.25 | 599 |  |  | 
Cc1cc(C2(c3cc(C)c(O)c([18F])c3)OS(=O)(=O)c3ccccc32)ccc1O (stereo not drawn) [MFCR, MonoFluoroCresol Red] | 7.6 | 576 |  |  | 
Cc1c(C2(c3cc(C(C)C)c(O)c([18F])c3C)OS(=O)(=O)c3ccccc32)cc(C(C)C)c(O)c1[18F] [DFTB, difluorothymolsulfonphthalein] | 7.65 | 605 |  |  | 
